Measurements taken from patent publication US20230390319A1, “INTERFERON GENE STIMULATOR COMPOSITION COMPRISING INDOLIZINE DERIVATIVE AS ACTIVE INGREDIENT” (AJOU UNIVERSITY INDUSTRY-ACADEMIC COOPERATION FOUNDATION, priority 2020, published 2023).

What was measured:
ISRE reporter signal = assay: ISRE luciferase reporter assay, THP-1 cells co-treated with compound and cGAMP; assay type: cell-based, Human; settings: THP-1 cells, 20 μM of each compound, co-treated with cGAMP (1 μg/ml), 24 hours
Experimental: (§1) Human monocytic THP-1 wild-type (WT) and STING knockout (KO) cell lines were obtained from InvivoGen. Cells were cultured in 1×RPMI 1640 medium containing 10% fetal bovine serum (FBS, Hyclone), 2.05 mM L-glutamine (Hyclone) and 1% penicillin (Corning) in a humidified incubator at 37° C. under 5% CO2.
To confirm immune responses, THP-1 cells were placed in 384-well plates (Grenier), and treated with each compound and cGAMP (1 μg/ml), and after 24 hours, ISRE activity was analyzed. QUANTI-Luc assay (InvivoGen) was performed using the cell culture supernatant to confirm the luciferase reporter gene signal. Fluorescent signals were measured using a TECAN micro plate reader SPARK, and the results were normalized to DMSO control.
(§2) THP-1 cells were co-treated with each of 86 indolizine derivatives and a very small amount of cGAMP (1 μg/ml), the immune response of the THP-1 cells was examined by ISRE reporter assay, and the cytotoxicity of co-treatment was also evaluated (Table 1). All results were compared by normalization to the reporter assay results obtained by treatment with cGAMP alone. […] Thus, Compound 42 was used in subsequent experiments.

THP-1 cells = assay: Cell viability assay (CellTiter Clo) in THP-1 cells; assay type: cell-based, Human; settings: THP-1 cells, 20 μM of each compound, co-treated with cGAMP (1 μg/ml)
Experimental: as §1
Cells were analyzed using CellTiter Clo (CTG, Promega). […] was measured using a TECAN micro plate reader SPARK. Results were normalized to DMSO control.
as §2

Row | SMILES | Normalized RU (relative unit of ISRE reporter signal) (ISRE reporter signal) | Normalized cell viability (THP-1 cells)
1 | CCN(CC)c1ccc(C(=O)c2cc(-c3ccc(OC)cc3)c3cc(C(C)=O)ccn23)cc1 [Compound 39] | 1.47 | 1.18
2 | COc1ccc(C(=O)c2cc(-c3ccc(N(C)C)cc3)c3ccccn23)cc1 [Compound 55] | 1.65 | 1.24
3 | CCN(CC)c1ccc(C(=O)c2cc(-c3ccc(OC)cc3)c3cc(C(F)(F)F)ccn23)cc1 [Compound 19] | 1.58 | 1.29
4 | CC(=O)c1ccn2c(C(=O)c3ccccc3)cc(-c3ccncc3)c2c1 [Compound 61] | 1.98 | 1.11
5 | CC(=O)c1ccc(-c2cc(C(=O)c3ccc(C(F)(F)F)cc3)n3ccc(C(F)(F)F)cc23)cc1 [Compound 2] | 1.42 | 1.03
6 | COc1ccc(C(=O)c2cc(-c3ccccc3)c3cc(C(C)=O)ccn23)cc1 [Compound 33] | 2.18 | 1.22
7 | CC(=O)c1cc(-c2ccc(N(C)C)cc2)c2cc(C(F)(F)F)ccn12 [Compound 77] | 1.24 | 1.28
8 | CC(=O)c1ccn2c(C(=O)c3ccccc3)cc(-c3ccc(N(C)C)cc3)c2c1 [Compound 30] | 1.33 | 1.26
9 | COc1ccc(-c2cc(C(=O)c3ccc(C(F)(F)F)cc3)n3ccc(C(C)=O)cc23)cc1 [Compound 24] | 1.33 | 1.21
10 | CC(=O)c1cc(-c2ccc(C(F)(F)F)cc2)c2ccccn12 [Compound 83] | 0.98 | 1.22
11 | CC(=O)c1ccn2c(C(=O)c3ccc(C(F)(F)F)cc3)cc(-c3ccc(N(C)C)cc3)c2c1 [Compound 25] | 1.75 | 1.12
12 | CCN(CC)c1ccc(C(=O)c2cc(-c3ccc(N(C)C)cc3)c3cc(C(C)=O)ccn23)cc1 [Compound 40] | 1.09 | 1.17
13 | CCN(CC)c1ccc(C(=O)c2cc(-c3ccc(C(C)=O)cc3)c3cc(C(F)(F)F)ccn23)cc1 [Compound 17] | 1.45 | 1.29
14 | CC(=O)c1ccc(-c2cc(C(C)=O)n3ccc(C(F)(F)F)cc23)cc1 [Compound 74] | 2.06 | 0.75
15 | CC(=O)c1cc(-c2ccccc2)c2ccccn12 [Compound 85] | 2.90 | 1.22
16 | Cc1ccc(-c2cc(C(=O)c3ccccc3)n3ccccc23)cc1N [Compound 68] | 3.16 | 1.17
17 | CN(C)c1ccc(-c2cc(C(=O)c3ccccc3)n3ccc(C(F)(F)F)cc23)cc1 [Compound 10] | 1.67 | 1.21
18 | CC(=O)c1ccn2c(C(=O)c3ccccc3)cc(-c3ccc(C)c(N)c3)c2c1 [Compound 62] | 2.86 | 1.23

Row | SMILES | Normalized RU (relative unit of ISRE reporter signal) (ISRE reporter signal) | Normalized cell viability (THP-1 cells)
19 | CCN(CC)c1ccc(C(=O)c2cc(-c3ccccc3)c3cc(C(C)=O)ccn23)cc1 [Compound 38] | 1.77 | 1.34
20 | O=C(c1ccccc1)c1cc(-c2ccc(C(F)(F)F)cc2)c2ccccn12 [Compound 46] | 1.08 | 1.25
21 | CC(=O)c1ccn2c(C(C)=O)cc(-c3ccc(C(F)(F)F)cc3)c2c1 [Compound 78] | 2.43 | 0.46
22 | CCCN(CCC)c1ccc(-c2cc(C(=O)c3ccccc3)n3ccc(C(C)=O)cc23)cc1 [Compound 65] | 1.13 | 1.25
23 | CC(=O)c1ccc(-c2cc(C(C)=O)n3ccc(C(C)=O)cc23)cc1 [Compound 79] | 3.80 | 1.19
24 | CCN(CC)c1ccc(C(=O)c2cc(-c3ccc(C(F)(F)F)cc3)c3cc(C(C)=O)ccn23)cc1 [Compound 36] | 3.37 | 1.27
25 | O=C(c1ccccc1)c1cc(-c2ccc(C(F)(F)F)cc2)c2cc(C(F)(F)F)ccn12 [Compound 6] | 1.38 | 1.19
26 | O=C(c1ccccc1)c1cc(-c2ccccc2)c2ccccn12 [Compound 48] | 1.37 | 1.18
27 | CN(C)c1ccc(-c2cc(C(=O)c3ccc(C(F)(F)F)cc3)n3ccc(C(F)(F)F)cc23)cc1 [Compound 5] | 1.58 | 1.05
28 | COc1ccc(-c2cc(C(=O)c3ccccc3)n3ccc(C(C)=O)cc23)cc1 [Compound 29] | 1.00 | 1.20
29 | CC(=O)c1ccc(-c2cc(C(=O)c3ccccc3)n3ccc(C(C)=O)cc23)cc1 [Compound 27] | 1.18 | 1.17
30 | COc1ccc(-c2cc(C(C)=O)n3ccc(C(F)(F)F)cc23)cc1 [Compound 76] | 2.02 | 1.14
31 | CC(=O)c1ccn2c(C(C)=O)cc(-c3ccc(N(C)C)cc3)c2c1 [Compound 82] | 2.57 | 1.16
32 | CCN(CC)c1ccc(C(=O)c2cc(-c3ccccc3)c3cc(C(F)(F)F)ccn23)cc1 [Compound 18] | 1.85 | 1.17
33 | COc1ccc(C(=O)c2cc(-c3ccc(C(F)(F)F)cc3)c3cc(C(F)(F)F)ccn23)cc1 [Compound 11] | 2.02 | 1.16
34 | CC(=O)c1cc(-c2ccc(C(F)(F)F)cc2)c2cc(C(F)(F)F)ccn12 [Compound 73] | 1.54 | 0.78
35 | COc1ccc(C(=O)c2cc(-c3ccccc3)c3cc(C(F)(F)F)ccn23)cc1 [Compound 13] | 1.62 | 1.14
